Laboratory results reported in US11344552B2, “Methods for treating metastatic pancreatic cancer using combination therapies comprising liposomal irinotecan and oxaliplatin” (Ipsen Biopharm Ltd., priority 2015, dated 2022).
Where two headings read alike, the source gives them in different places.

Tests used:
topoisomerase I = target: T1, topoisomerase I (Homo sapiens, UniProt P11387); conditions: metabolite formed by nonspecific carboxylesterases; cited from earlier work
T1 sequence (P11387 1-765): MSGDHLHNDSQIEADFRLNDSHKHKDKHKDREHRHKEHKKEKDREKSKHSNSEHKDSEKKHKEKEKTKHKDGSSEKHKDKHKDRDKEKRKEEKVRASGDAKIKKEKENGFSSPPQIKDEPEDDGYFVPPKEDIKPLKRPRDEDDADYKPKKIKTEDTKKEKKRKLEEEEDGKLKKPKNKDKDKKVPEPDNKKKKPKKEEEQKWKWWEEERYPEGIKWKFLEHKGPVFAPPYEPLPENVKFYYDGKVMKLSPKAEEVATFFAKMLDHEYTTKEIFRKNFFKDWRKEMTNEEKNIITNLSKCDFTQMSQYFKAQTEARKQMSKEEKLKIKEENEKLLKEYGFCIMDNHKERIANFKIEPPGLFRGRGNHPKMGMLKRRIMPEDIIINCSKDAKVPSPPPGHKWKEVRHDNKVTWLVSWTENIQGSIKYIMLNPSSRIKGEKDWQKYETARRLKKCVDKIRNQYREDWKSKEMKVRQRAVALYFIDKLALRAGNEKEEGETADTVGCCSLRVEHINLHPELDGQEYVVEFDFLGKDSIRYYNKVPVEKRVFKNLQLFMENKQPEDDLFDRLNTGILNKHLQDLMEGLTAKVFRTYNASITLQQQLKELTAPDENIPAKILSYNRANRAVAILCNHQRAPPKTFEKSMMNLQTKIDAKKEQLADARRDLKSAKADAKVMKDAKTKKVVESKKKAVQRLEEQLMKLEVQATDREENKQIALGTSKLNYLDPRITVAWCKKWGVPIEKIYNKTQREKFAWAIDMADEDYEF

[1] = tested on: pancreatic cell lines (AsPC-1, BxPC-3, Capan-2, CFPAC-1, and MiaPaCa-2); assay: In vitro cell growth inhibition by SN-38 exposure duration in a panel of pancreatic cell lines; conditions: SN-38 combined with 5-FU or oxaliplatin; prolonged vs short exposure
[2] = tested on: PDX 19015 pancreatic cancer xenograft; assay: Patient-derived xenograft (PDX #19015) pancreatic cancer mouse efficacy model; assay type: in vivo; conditions: FIG. 6D, relative to the control group
Protocol: Treatment doses are indicated in the figure beside each treatment, and were given 4 times.
Significance was determined by ordinary 2-way analysis of variance (ANOVA). The regimens were administered on days 0, 7, 14 and 21 of the study.
Female CB.17 SCID mice were obtained from Roswell Park Cancer Institute (Buffalo, N.Y.), initially at 6-8 weeks of age. Per treatment group, 8 animals were treated, unless otherwise indicated. Tumor pieces were derived from donor mice and engrafted subcutaneously.
5-FU was administered intraperitoneally. […] Tolerability: Mouse weights were measured once weekly to monitor treatment tolerability.

[3] = cited from earlier work
[4] = Delayed dosing of oxaliplatin: tolerability, hematologic and liver toxicities in naive CD-1 mice; conditions: intravenous, pre-defined
Protocol: Tolerability studies were performed in naïve (non-tumor-bearing) mice. Three animals were treated per group.
Each drug was administered individually, or in combination. […] A single administration of each drug was given. Mouse body weights were measured daily for up to 2 weeks post-treatment.
Measurement of hematologic and liver toxicities: At the end of study, terminal bleeds were performed for each mouse via cardiac puncture. Hematologic function (blood cell count) was measured by Hemavet (Drew Scientific, Miami Lakes, Fla.), according to manufacturer's protocol. Liver function (enzyme levels) was measured by CatalystDx (Idexx Laboratories, Westbrook, Me.) according to the manufacturer's protocol.

[5] = Phase 3 study of the FOLFIRINOX combination; cited from earlier work

CCc1c2c(nc3ccc(O)cc13)-c1cc3c(c(=O)n1C2)COC(=O)[C@]3(O)CC [SN-38]
activity relative to irinotecan (topoisomerase I): 100-1000 fold | cell growth inhibition [1]: prolonged exposure also led to increased cell growth inhibition

CCc1c2c(nc3ccc(OC(=O)N4CCC(N5CCCCC5)CC4)cc13)-c1cc3c(c(=O)n1C2)COC(=O)[C@]3(O)CC [irinotecan, (S)-4,11-diethyl-3,4,12,14-tetrahydro-4-hydroxy-3,14-dioxo1H-pyrano[3′,4′: 6,7]-indolizino[1,2-b]quinolin-9-yl-[1,4′bipiperidine]-1′-carboxylate]
overall survival [2]: No benefit of added 5-FU or oxaliplatin | incidence of grade 4 neutropenia ([3]; patients heterozygous for UGT1A1*28 (6/7 genotype), single-agent irinotecan 350 mg/m^2 once every-3-weeks): 12.5% | incidence of grade 4 neutropenia ([3]; patients homozygous for the UGT1A1*28 allele, single-agent irinotecan 350 mg/m^2 once every-3-weeks): 50% | incidence of grade 4 neutropenia ([3]; patients homozygous for the wild-type allele (UGT1A1 6/6 genotype)): no grade 4 neutropenia was observed

O=C(O)C(=O)O.[NH-][C@@H]1CCCC[C@H]1[NH-].[Pt+2] [oxaliplatin]
maximum tolerated dose [4]: 17 mg/kg

FOLFIRINOX
incidence of most common Grade 3-4 adverse events (neutropenia, fatigue, vomiting, diarrhea, thrombocytopenia, sensory neuropathy, anemia, elevated ALT, thromboembolism, febrile neutropenia) [5]: > 5%
